From patent US20220117266A1, “NICKEL CHELATION THERAPY” (priority 2019, published 2022)

Experiments:
[1] = system: MDR S. Typhimurium (ATCC 700408); assay: DMG growth inhibition in liquid culture (CFU/mL); format: cell-based, Salmonella enterica serovar Typhimurium
Protocol: Growth conditions. All strains were routinely grown on LB agar plates or in LB broth. For DMG-growth inhibition study, S. Typhimurium strains ATCC 14028 and ATCC 700408 were grown in M9 minimal medium (M9 minimal salts, 0.4% glucose, 2 mM MgSO4, 0.1 mM CaCl2), and 1 μg/mL thiamine, pH 7.2). K. pneumoniae was grown in “W-U” medium, modified from Bender et al. 1977 129:1001-1009, containing 60 mM K2HPO4, 33 mM KH2PO4, 0.4 mM MgSO4, 0.4% Glucose, and 5 mM urea (instead of KNO3), pH 7.4. Briefly, overnight cultures of S. Typhimurium and K. pneumoniae were harvested, spun at 14,000 rpm for five minutes, washed once with either M9 (S. Typhimurium) or W-U (K. pneumoniae) and resuspended in either M9 (S. Typhimurium) or W-U (K. pneumoniae). […] Cells were incubated for 24 hours at 37° C. with shaking at 250 rpm, then serially diluted in PBS and 5 μL of each dilution was spotted in triplicate on LB plate. Colony forming units (CFU) were counted after 16 hours at 37° C. Each growth experiment was done at least three times.

[2] = system: urease activity in K. pneumoniae BAA-2472; assay: Urease assay on cell-free extracts of cells grown with DMG; format: biochemical; settings: overnight
Protocol: Thus, similar to hydrogenase inhibition, it appears DMG-mediated Ni chelation can be used to efficiently block urease activity in Klebsiella.
Urease assays. […] Cells were pelleted at 6,000 rpm for 30 minutes and washed three times with PBS (pH 7.4). Cells were standardized to an optical density (OD600) of 4.5, added to sterile glass beads (0.1 mm diameter, Biospec Products, Bartlesville, Okla.) at a 100% w/v ratio, and frozen at −80° C. The bead and cell mixture was thawed at room temperature and vortexed at 3,200 rpm for six minutes with one minute intervals on ice. The mixture was pelleted at 14,000 rpm for two minutes and the cell-free supernatant was assayed for urease activity using the phenol-hypochlorite method (Weatherburn et al. 1967. Analytical Chemistry 39:971-974). Protein concentration was determined using the BCA protein kit (Thermo Fisher Pierce, Rockford, Ill., USA). Urease activity is expressed as μmoles of NH3 produced per minute per mg of total protein.

[3] = system: C. concisus (strain 13826, ATCC BAA-1457); assay: Growth inhibition, solid plates (CFU); format: cell-based, Campylobacter concisus; settings: BA plates, 24 hours

CC(=NO)C(C)=NO [DMG, dimethylglyoxime]
effect on bacterial growth ([1]; DMG at 2.5 mM, 5 mM, or 7.5 mM): no measurable effect | inhibition at 10000 µM ([1]; Salmonella enterica, 24 h): > 100% | Urease activity ([2]; DMG 1 mM in LB broth): 0.05 ± 0.01 μmoles of NH3 produced per minute per mg of total protein | Urease activity ([2]; DMG 2 mM in LB broth): 0.03 ± 0.01 μmoles of NH3 produced per minute per mg of total protein | effect on growth (CFUs, colony size) ([3]; DMG 2 mM): bacteriostatic | effect on growth (CFUs) ([3]; DMG 4 mM, no CFU detected (detection limit: 200 CFUs)): bactericidal
